According to PubChem BioAssay AID624129 (Sanford-Burnham Center for Chemical Genomics, 2012):
Active and inactive are the calls of the source. How the calls were made is not given here.

How the values were obtained:
Assay in all cases: CXCR6 receptor antagonists, dose response, cell-based, beta-arrestin, DiscoveRx, APJ panel, uHTS hits (AID 624129)
[1] = target: Beta-galactosidase (Escherichia coli) (UniProt Q8VNN2); conditions: CXCR6 beta-arrestin (DiscoveRx) antagonist cell assay, b-galactosidase
Beta-galactosidase (Escherichia coli), sequence (Q8VNN2 whole entry, looked up): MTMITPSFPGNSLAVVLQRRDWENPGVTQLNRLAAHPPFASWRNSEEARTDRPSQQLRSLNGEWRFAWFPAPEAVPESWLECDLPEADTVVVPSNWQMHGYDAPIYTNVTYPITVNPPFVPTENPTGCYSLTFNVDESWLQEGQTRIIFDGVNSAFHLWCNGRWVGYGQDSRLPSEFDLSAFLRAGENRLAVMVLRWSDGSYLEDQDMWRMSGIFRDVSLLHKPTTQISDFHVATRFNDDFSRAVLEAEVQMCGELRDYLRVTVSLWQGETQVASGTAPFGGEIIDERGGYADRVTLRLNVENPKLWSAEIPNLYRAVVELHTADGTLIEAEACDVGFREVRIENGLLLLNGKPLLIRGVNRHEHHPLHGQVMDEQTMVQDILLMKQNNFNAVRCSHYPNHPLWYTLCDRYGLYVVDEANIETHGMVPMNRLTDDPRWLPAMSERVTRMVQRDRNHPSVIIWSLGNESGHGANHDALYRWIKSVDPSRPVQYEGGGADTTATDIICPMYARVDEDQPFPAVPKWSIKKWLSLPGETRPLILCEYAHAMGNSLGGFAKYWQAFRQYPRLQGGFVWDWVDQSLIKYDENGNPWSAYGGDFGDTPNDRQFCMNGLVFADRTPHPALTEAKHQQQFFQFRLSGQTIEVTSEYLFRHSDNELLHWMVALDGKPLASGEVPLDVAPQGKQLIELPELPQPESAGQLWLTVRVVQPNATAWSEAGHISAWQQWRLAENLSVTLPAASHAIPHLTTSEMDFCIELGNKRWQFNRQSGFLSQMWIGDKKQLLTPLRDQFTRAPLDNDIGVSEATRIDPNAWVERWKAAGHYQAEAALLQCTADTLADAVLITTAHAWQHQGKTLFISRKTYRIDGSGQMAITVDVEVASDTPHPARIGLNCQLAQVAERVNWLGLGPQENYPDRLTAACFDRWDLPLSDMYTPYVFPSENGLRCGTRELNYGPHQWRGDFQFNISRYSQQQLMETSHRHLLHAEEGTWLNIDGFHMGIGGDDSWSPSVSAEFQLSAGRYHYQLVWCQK

[2] = target: C-C chemokine receptor type 6 (Homo sapiens) (UniProt P51684); conditions: CXCR6 beta-arrestin (DiscoveRx) antagonist cell assay
[3] = target: C-X-C chemokine receptor type 6 (Homo sapiens) (UniProt O00574); conditions: CXCR6 beta-arrestin (DiscoveRx) antagonist cell assay
C-X-C chemokine receptor type 6 (Homo sapiens), sequence (O00574 whole entry, looked up): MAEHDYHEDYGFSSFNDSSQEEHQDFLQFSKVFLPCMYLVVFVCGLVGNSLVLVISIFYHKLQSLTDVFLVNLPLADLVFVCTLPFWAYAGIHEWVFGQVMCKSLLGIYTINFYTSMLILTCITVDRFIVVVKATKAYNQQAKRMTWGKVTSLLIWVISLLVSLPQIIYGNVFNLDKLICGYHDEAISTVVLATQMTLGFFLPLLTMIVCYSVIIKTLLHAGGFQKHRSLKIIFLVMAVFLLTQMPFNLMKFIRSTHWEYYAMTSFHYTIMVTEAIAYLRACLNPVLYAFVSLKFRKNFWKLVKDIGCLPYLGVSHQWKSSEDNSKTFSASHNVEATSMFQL

[4] = target: Apelin receptor (Homo sapiens) (UniProt P35414); conditions: CXCR6 beta-arrestin (DiscoveRx) antagonist cell assay, APJ
[5] = dose range 1, mean IC50 across replicates
[6] = CCR6, dose range 1, mean IC50 across replicates
[7] = CXCR6, dose range 1, mean IC50 across replicates
[8] = CXCR6, run 1, dose range 2, at 80 µM (top of the series)

SMILES	IC50 ([1]; dose range 1)	IC50 [1, 5]	IC50 ([2]; CCR6, dose range 1)	IC50 [2, 6]	IC50 ([2]; CCR6, run 2, dose range 1)	IC50 ([3]; CXCR6, dose range 1)	IC50 [3, 7]	IC50 ([3]; CXCR6, run 1, dose range 2)	IC50 ([3]; CXCR6, run 2, dose range 1)	IC50 ([3]; CXCR6, run 2, dose range 2)	IC50 ([4]; dose range 1)	IC50 [4, 5]	IC50 ([4]; run 2, dose range 1)	IC50 ([4]; run 3, dose range 1)	inhibition [3, 8]	inhibition ([3]; CXCR6, run 1, dose range 2, at 10 µM (top of the series))	inhibition ([3]; CXCR6, run 1, dose range 2, at 40 µM (top of the series))
CCn1c(=O)c([N+](=O)[O-])c(Cl)c2ccccc21	> 80 µM (inactive)	> 80 µM	3.29 µM	3.6 µM	3.91 µM	4.19 µM	7.64 µM	4.43 µM	17.8 µM	4.13 µM	31.9 µM	35.8 µM	21.3 µM	54.3 µM			
Cc1cccnc1Nc1nc(-c2ccccn2)cs1	> 80 µM (inactive)	> 80 µM	0.955 µM	1.22 µM	1.48 µM	1.13 µM	0.904 µM	0.837 µM	0.861 µM	0.788 µM	1.2 µM	1.38 µM	1.82 µM	1.13 µM			
CCN(c1ccccc1)S(=O)(=O)c1ccc(NC(=O)c2nc(S(C)(=O)=O)ncc2Cl)cc1	> 80 µM (inactive)	> 80 µM	11.6 µM	11 µM	10.3 µM	10.8 µM	10.9 µM	10.5 µM	11.5 µM	10.8 µM	16.2 µM	16 µM	15.3 µM	16.4 µM			
O=S(=O)(/C=C/C=C/S(=O)(=O)c1ccccc1)c1ccccc1	> 80 µM (inactive)	> 80 µM	7.48 µM	7.41 µM	7.33 µM	11.6 µM	10.5 µM	10.1 µM	8.76 µM	11.4 µM	23.5 µM	24.6 µM	25.7 µM	> 80 µM			
Oc1c(Br)cc(Br)cc1C=NCc1ccccc1	28.5 µM	28.5 µM	16.8 µM	18.6 µM	20.5 µM	inactive	18.1 µM	10.2 µM	22.9 µM	10.6 µM	17 µM	17.9 µM	21.6 µM	15.1 µM			
O=C1C(Cc2ccccc2)Nc2ncnc(N3CCN(c4ccccc4)CC3)c2N1Cc1ccc(Br)cc1 (centres undefined)	> 80 µM (inactive)	> 80 µM	1.67 µM	1.55 µM	1.44 µM	1.37 µM	1.23 µM	1.42 µM	0.993 µM	1.13 µM	1.2 µM	2.26 µM	3.32 µM	> 80 µM			
CC(=O)OCCCNc1cc(Sc2nc3ccccc3s2)c2nonc2c1[N+](=O)[O-]	> 80 µM (inactive)	> 80 µM	6.38 µM	30 µM	53.6 µM		8.69 µM	8.09 µM	> 80 µM	9.29 µM	> 80 µM (inactive)	> 80 µM	> 80 µM	> 80 µM			
Cc1ccc(OCCN2C(=O)c3ccccc3C2=O)c([N+](=O)[O-])c1	> 80 µM (inactive)	> 80 µM	8.16 µM	6.82 µM	5.48 µM	6.4 µM	5.31 µM	5.94 µM	4.95 µM	3.96 µM	4.29 µM	5.81 µM	7.87 µM	5.29 µM			
Cc1cccc(CSc2cccc3cccnc23)c1	> 80 µM (inactive)	> 80 µM	3.94 µM	4.64 µM	5.33 µM	3.79 µM	3.51 µM	2.78 µM	4.39 µM	3.09 µM	2.86 µM	3.95 µM	4.91 µM	4.08 µM			
C=C(CN(C)C)C(=O)c1ccc(C)cc1C	48.2 µM	48.2 µM	26 µM	29.1 µM	32.3 µM	inactive	45.6 µM		25.5 µM		51.6 µM	39.5 µM	39.9 µM	27 µM	90.5%		
N#Cc1c(C#N)c(SSc2c(C#N)c(C#N)c(N)n2-c2ccccc2)n(-c2ccccc2)c1N	> 80 µM (inactive)	> 80 µM	> 80 µM (inactive)	> 80 µM	> 80 µM		10.7 µM	10.6 µM	> 80 µM	10.9 µM		2.15 µM	> 80 µM	2.15 µM			
COc1ccc(NC(=O)/C(Cl)=C(/Cl)S(=O)(=O)Cc2ccc(C)cc2)cn1	> 80 µM (inactive)	> 80 µM	0.489 µM	0.686 µM	0.883 µM	0.963 µM	0.897 µM		0.832 µM		0.686 µM	0.684 µM	0.685 µM	0.68 µM		99.9%	
CC(=O)NC(=S)Nc1sc2c(c1C(N)=O)CCC(C)C2 (centres undefined)	> 80 µM (inactive)	> 80 µM		> 80 µM	> 80 µM	> 80 µM (inactive)	> 80 µM		> 80 µM			> 80 µM	> 80 µM	> 80 µM	-35.8%		
CCOc1ccc(NCC(=O)c2ccc(C)cc2)cc1	> 80 µM (inactive)	> 80 µM	14.2 µM	16.3 µM	18.3 µM	inactive	20.7 µM		> 80 µM		20.7 µM	24.3 µM	27.9 µM	> 80 µM	38.7%		
O=[N+]([O-])c1c(NCCCO)cc(Sc2nc3ccccc3s2)c2nonc12	> 80 µM (inactive)	> 80 µM	8.25 µM	8.81 µM	9.37 µM	inactive	14.3 µM		13.5 µM		9.5 µM	11.5 µM	11.7 µM	13.2 µM	118%		
CN(O)C(=S)c1ccccc1	> 80 µM (inactive)	> 80 µM	0.724 µM	1.31 µM	1.89 µM	1.67 µM	1.58 µM		1.48 µM		2.41 µM	4.68 µM	6.23 µM	5.39 µM			90.8%
CCC(=O)OCCNc1cc(Sc2nc3ccccc3[nH]2)c2nonc2c1[N+](=O)[O-]	27.1 µM	27.1 µM	4.73 µM	4.66 µM	4.58 µM	4.57 µM	5.64 µM	5.85 µM	6.71 µM	5.42 µM	9.49 µM	7.79 µM	6.65 µM	7.23 µM			
CC1(C)CC(=O)C2=C(C1)OC1=C(C(=O)CC(C)(C)C1)C2c1ccc(O)cc1O	> 80 µM (inactive)	> 80 µM	4.66 µM	5.44 µM	6.22 µM	10.3 µM	9.86 µM	9.08 µM	9.24 µM	10.8 µM	11.2 µM	10.6 µM	8.84 µM	11.7 µM			
CCOc1ccccc1NC(=O)c1nc(S(=O)(=O)Cc2ccccc2)ncc1Cl	> 80 µM (inactive)	> 80 µM	8.24 µM	7.46 µM	6.69 µM	9.59 µM	10.7 µM	11.2 µM	11.5 µM	10.7 µM	13.4 µM	13.4 µM	13.4 µM	> 80 µM			
O=[N+]([O-])c1ccc(S(=O)Cc2ccccc2)c([N+](=O)[O-])c1 (centres undefined)	> 80 µM (inactive)	> 80 µM		> 80 µM	> 80 µM	> 80 µM (inactive)	> 80 µM		> 80 µM			> 80 µM	> 80 µM	> 80 µM	-36.3%		
CN(C)S(=O)(=O)c1cccc(NC(=O)CSc2cccc3cccnc23)c1	> 80 µM (inactive)	> 80 µM	37.3 µM	34.1 µM	30.8 µM	inactive	30.8 µM		27.2 µM		47.9 µM	48.1 µM	47.7 µM	48.7 µM	123%		
